Test results taken from patent publication US20050209232A1, “Pyridazinone ureas as antagonists of alpha4 integrins” (priority 2004, published 2005).

Columns and labels:
α4β1 = biological target: T1, α4β1 (Homo sapiens, UniProt P05556+P13612); test: Ramos Cell Adhesion Assay (α4β1 Mediated Adhesion/VCAM-1); assay type: cell-based; conditions: Ramos cells adhering to recombinant hVCAM-1
T1 construct: Ramos cells, (50 μL at 2×10^6/mL) labeled with 5 μM Calcein AM; endogenous in cells; host or cells: Ramos cells
T1 sequence (P05556 21-798, one chain of several): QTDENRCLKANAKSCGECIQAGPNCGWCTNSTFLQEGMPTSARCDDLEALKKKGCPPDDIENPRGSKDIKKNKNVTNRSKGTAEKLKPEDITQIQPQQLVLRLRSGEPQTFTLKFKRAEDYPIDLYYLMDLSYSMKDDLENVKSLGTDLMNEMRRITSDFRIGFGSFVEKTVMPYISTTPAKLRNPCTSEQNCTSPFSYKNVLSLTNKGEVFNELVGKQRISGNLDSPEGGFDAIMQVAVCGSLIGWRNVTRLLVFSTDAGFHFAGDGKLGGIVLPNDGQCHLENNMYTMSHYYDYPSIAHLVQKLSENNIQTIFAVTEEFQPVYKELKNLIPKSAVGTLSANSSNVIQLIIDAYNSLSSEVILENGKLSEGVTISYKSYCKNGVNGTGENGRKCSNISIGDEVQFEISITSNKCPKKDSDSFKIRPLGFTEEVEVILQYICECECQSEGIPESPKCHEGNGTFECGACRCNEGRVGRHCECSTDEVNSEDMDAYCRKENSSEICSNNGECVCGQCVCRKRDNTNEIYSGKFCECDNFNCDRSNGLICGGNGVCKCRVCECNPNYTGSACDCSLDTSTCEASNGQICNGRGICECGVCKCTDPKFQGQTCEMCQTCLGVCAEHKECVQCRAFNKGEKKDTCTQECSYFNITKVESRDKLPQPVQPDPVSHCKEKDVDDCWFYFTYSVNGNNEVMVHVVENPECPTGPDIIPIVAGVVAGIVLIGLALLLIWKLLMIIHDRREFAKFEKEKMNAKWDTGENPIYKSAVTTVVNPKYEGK
Description: Ramos Cell Adhesion Assay (α4β1 Mediated Adhesion/VCAM-1)
Immulon 96 well plates (Dynex) were coated with 100 μL recombinant hVCAM-1 at 4.0 μg/mL in 0.05 M NaCO3 buffer pH 9.0 overnight at 4° C. (R&D Systems). Plates were washed 2 times in PBS with 1% BSA and blocked for 1 h@room temperature in this buffer. PBS was removed and compounds to be tested (50 μL) were added at 2× concentration. Ramos cells, (50 μL at 2×10^6/mL) labeled with 5 μM Calcein AM (Molecular Probes) for 1 h at 37° C., were added to each well and allowed to adhere for 1 h at room temperature. Plates were washed 4 × in PBS+1% BSA and cells were lysed for 15 minutes in 100 μL of 1 M Tris pH 8.0 with 1% SDS. The plate was read at 485 nm excitation and 530 nm emission.

human α4β7 integrin = biological target: T2, human α4β7 integrin (Homo sapiens, UniProt P13612+P26010); test: α4β7-K562 Cell Adhesion Assay (α4β7 Mediated Adhesion/MAdCAM-1); assay type: cell-based; conditions: K562 cells expressing human α4β7 adhering to FLAG-hMAdCAM-1, 1 mM Mn2+
T2 construct: expressed in transfected cells; host or cells: K562 cells, stably transfected
T2 sequence (P13612 34-1032): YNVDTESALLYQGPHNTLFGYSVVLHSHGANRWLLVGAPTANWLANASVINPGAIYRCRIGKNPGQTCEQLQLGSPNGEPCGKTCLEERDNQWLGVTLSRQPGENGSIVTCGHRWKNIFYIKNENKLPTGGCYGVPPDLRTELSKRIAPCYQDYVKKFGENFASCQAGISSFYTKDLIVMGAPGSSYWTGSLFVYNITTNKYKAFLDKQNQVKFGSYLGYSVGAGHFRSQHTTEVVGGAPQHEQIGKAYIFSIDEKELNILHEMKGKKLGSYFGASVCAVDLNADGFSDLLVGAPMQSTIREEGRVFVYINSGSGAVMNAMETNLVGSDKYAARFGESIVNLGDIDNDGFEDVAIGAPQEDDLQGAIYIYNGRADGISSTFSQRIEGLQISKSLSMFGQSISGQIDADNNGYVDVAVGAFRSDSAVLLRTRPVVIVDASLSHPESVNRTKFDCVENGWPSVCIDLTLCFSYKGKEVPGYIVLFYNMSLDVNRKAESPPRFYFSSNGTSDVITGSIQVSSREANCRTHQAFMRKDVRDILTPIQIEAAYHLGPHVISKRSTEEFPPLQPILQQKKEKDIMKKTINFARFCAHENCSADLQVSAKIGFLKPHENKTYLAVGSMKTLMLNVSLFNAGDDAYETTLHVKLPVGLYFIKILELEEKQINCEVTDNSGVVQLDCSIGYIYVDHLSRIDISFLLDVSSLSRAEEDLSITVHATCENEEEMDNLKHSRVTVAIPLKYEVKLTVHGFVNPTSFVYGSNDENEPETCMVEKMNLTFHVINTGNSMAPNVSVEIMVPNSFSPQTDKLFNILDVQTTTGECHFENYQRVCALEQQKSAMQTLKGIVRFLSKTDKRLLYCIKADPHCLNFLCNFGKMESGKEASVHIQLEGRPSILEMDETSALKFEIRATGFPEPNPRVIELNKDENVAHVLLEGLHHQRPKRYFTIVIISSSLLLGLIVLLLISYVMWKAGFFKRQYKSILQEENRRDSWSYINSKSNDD
T2 sequence (P26010 20-798): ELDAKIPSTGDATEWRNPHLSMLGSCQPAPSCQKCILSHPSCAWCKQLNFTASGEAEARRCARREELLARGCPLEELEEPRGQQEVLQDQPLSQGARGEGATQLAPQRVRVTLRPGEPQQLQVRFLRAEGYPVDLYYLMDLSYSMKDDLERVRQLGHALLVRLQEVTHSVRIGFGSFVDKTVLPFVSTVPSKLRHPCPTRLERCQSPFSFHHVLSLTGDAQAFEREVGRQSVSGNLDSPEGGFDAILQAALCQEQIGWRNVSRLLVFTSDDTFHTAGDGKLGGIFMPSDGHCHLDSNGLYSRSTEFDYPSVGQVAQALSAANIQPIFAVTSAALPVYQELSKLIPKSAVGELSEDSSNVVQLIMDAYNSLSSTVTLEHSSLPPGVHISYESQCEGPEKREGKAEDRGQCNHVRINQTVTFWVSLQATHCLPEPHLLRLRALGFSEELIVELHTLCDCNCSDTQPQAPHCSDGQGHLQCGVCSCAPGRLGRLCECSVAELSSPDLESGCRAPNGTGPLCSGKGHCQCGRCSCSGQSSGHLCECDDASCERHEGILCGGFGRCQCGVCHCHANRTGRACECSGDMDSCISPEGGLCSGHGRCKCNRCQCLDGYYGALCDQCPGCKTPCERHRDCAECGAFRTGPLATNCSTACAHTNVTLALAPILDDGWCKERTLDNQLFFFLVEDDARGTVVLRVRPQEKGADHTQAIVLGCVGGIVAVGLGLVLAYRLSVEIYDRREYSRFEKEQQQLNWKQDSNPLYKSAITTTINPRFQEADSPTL
Description: α4β7-K562 Cell Adhesion Assay (α4β7 Mediated Adhesion/MAdCAM-1)
M2 anti-FLAG Antibody Coated 96-well plates (Sigma) were coated for 1 hour at 4° C. with 2-8 μL/well recombinant FLAG-hMAdCAM-1 contained in 100 μL of Dulbecco's PBS, pH 7.4, with 1% BSA and 1 mM Mn^2+ (PBS-BSA-Mn). Plates were washed once with PBS-BSA-Mn. Buffer was removed and compounds to be tested (50 μL) were added at 2× concentration. Stably transfected K562 cells expressing human α4β7 integrin, (50 μL at 2×10^6/mL) that had been labeled with 100 μg/mL carboxymethyl fluorescein diacetate succinimidyl ester (CFDA-SE; Molecular Probes) for 15 min at 37° C. were added to each well and allowed to adhere for 1 h at room temperature. Plates were washed 4× in PBS-BSA-Mn and then cells were lysed for 2 min by addtion of 100 μL of PBS without Ca^2+, Mg^2+ supplemented with 0.1 M NaOH. The plate was read on a 96-well fluorescent plate reader at 485 nm excitation and 530 nm emission.

Row | SMILES | IC50 (α4β1) [nM] | IC50 (human α4β7 integrin) [nM]
1 | CCN(C(=O)N[C@@H](Cc1ccc(-c2c(OC)cnn(C)c2=O)cc1)C(=O)O)c1cc(O)ccc1C [Cpd 44] | > 5000 | 24
2 | COc1cnn(C)c(=O)c1-c1ccc(C[C@H](NC(=O)N(C)Cc2cnn(-c3ccccc3)c2)C(=O)O)cc1 [Cpd 29] | > 5000 | 694
3 | COc1cnn(C)c(=O)c1-c1ccc(C[C@H](NC(=O)N[C@@H]2CS(=O)(=O)C[C@H]2O)C(=O)O)cc1 [Cpd 36] | > 5000 | 674
4 | COc1cnn(C)c(=O)c1-c1ccc(C[C@H](NC(=O)N(CC(C)C)c2ccccc2)C(=O)O)cc1 [Cpd 41] | > 5000 | 213
5 | COc1cnn(C)c(=O)c1-c1ccc(C[C@H](NC(=O)N(Cc2ccccc2)c2ccccc2)C(=O)O)cc1 [Cpd 48] | > 5000 | 67
6 | COc1cnn(C)c(=O)c1-c1ccc(C[C@H](NC(=O)NCCO)C(=O)O)cc1 [Cpd 7] | > 5000 | 789
7 | COc1cnn(CCO)c(=O)c1-c1ccc(C[C@H](NC(=O)NC2CCCCC2)C(=O)O)cc1 [Cpd 3] | > 5000 | 311
8 | COc1cnn(C)c(=O)c1-c1ccc(C[C@H](NC(=O)N2c3ccc(F)cc3CCC2C)C(=O)O)cc1 (mixture of isomers) [Cpd 53] | > 5000 | 128
9 | COc1cnn(C)c(=O)c1-c1ccc(C[C@H](NC(=O)NC2CCCCC2)C(=O)O)cc1 [Cpd 20] |  | 497
10 | COc1cnn(C)c(=O)c1-c1ccc(C[C@H](NC(=O)N(c2ccccc2)C(C)C)C(=O)O)cc1 [Cpd 42] | > 5000 | 92
11 | COc1cnn(C)c(=O)c1-c1ccc(C[C@H](NC(=O)N(Cc2ccccc2)C(C)C)C(=O)O)cc1 [Cpd 27] | > 5000 | 218
12 | COc1cccc2c1OCCCN(C(=O)N[C@@H](Cc1ccc(-c3c(OC)cnn(C)c3=O)cc1)C(=O)O)C2 [Cpd 32] | > 5000 | 428
13 | COc1cnn(CCO)c(=O)c1-c1ccc(C[C@H](NC(=O)Nc2ccccc2F)C(=O)O)cc1 [Cpd 4] | > 5000 | 2780
14 | COc1cnn(C)c(=O)c1-c1ccc(C[C@H](NC(=O)N[C@H]2CC3CCC2C3)C(=O)O)cc1 (stereo partly shown) [Cpd 23] | > 5000 | 183
15 | COc1cnn(C)c(=O)c1-c1ccc(CC(NC(=O)N2CCCC2CO)C(=O)O)cc1 (stereo not shown) [Cpd 8, 2-[(2-Hydroxymethyl-pyrrolidine-1-carbonyl)-amino]-3-[4-(5-methoxy-2-methyl-3-oxo-2,3-dihydro-pyridazin-4-yl)-phenyl]-propionic acid] | > 5000 | 341
16 | COc1cnn(C)c(=O)c1-c1ccc(C[C@H](NC(=O)N2CCC(O)C2)C(=O)O)cc1 (mixture of isomers) [Cpd 6] | > 5000 | 380
17 | COc1cnn(C)c(=O)c1-c1ccc(C[C@H](NC(=O)N(C)c2ccccn2)C(=O)O)cc1 [Cpd 54] | > 5000 | 880
18 | COc1cnn(C)c(=O)c1-c1ccc(C[C@H](NC(=O)N(C)Cc2ccccc2)C(=O)O)cc1 [Cpd 12] | > 5000 | 601

Row | SMILES | IC50 (α4β1) [nM] | IC50 (human α4β7 integrin) [nM]
19 | COc1cnn(C)c(=O)c1-c1ccc(C[C@H](NC(=O)N(C)C2CCN(Cc3ccccc3)C2)C(=O)O)cc1 (stereo partly shown) [Cpd 35] | > 5000 | 1830
20 | COc1cnn(CCO)c(=O)c1-c1ccc(C[C@H](NC(=O)Nc2c(Cl)cccc2Cl)C(=O)O)cc1 [Cpd 2] | 2870 | 28
21 | CCCN(C(=O)N[C@@H](Cc1ccc(-c2c(OC)cnn(C)c2=O)cc1)C(=O)O)c1ccccc1 [Cpd 50] |  | 354
22 | COc1cnn(C)c(=O)c1-c1ccc(C[C@H](NC(=O)N(Cc2cccnc2)C2CN3CCC2CC3)C(=O)O)cc1 (mixture of isomers) [Cpd 40] | > 5000 | 1010
23 | COc1cnn(C)c(=O)c1-c1ccc(C[C@H](NC(=O)N2CCN(C3C4CC5CC(C4)CC3C5)CC2)C(=O)O)cc1 (stereo partly shown) [Cpd 25] | > 5000 | 2020
24 | COc1cnn(C)c(=O)c1-c1ccc(C[C@H](NC(=O)N2CCC[C@@H]2CNc2ccccc2)C(=O)O)cc1 [Cpd 38] | > 5000 | 967
25 | COc1cnn(C)c(=O)c1-c1ccc(C[C@H](NC(=O)N(O)C2CCCCC2)C(=O)O)cc1 [Cpd 26] | > 5000 | 598
26 | COc1cnn(C)c(=O)c1-c1ccc(C[C@H](NC(=O)N2CCN(C)CC2)C(=O)O)cc1 [Cpd 5] | > 5000 | 469
27 | COc1cnn(C)c(=O)c1-c1ccc(C[C@H](NC(=O)N2CCCN(c3nc4ccccc4o3)CC2)C(=O)O)cc1 [Cpd 30] | > 5000 | 156
28 | COc1cnn(C)c(=O)c1-c1ccc(C[C@H](NC(=O)N(C)c2ccccc2C(F)(F)F)C(=O)O)cc1 [Cpd 52] | 4170 | 37
29 | COc1cnn(C)c(=O)c1-c1ccc(C[C@H](NC(=O)N(C)CCO)C(=O)O)cc1 [Cpd 14] | > 5000 | 94
30 | COc1cnn(C)c(=O)c1-c1ccc(C[C@H](NC(=O)N2c3ccccc3CC2C)C(=O)O)cc1 (mixture of isomers) [Cpd 49] | > 5000 | 390
31 | COc1cnn(C)c(=O)c1-c1ccc(C[C@H](NC(=O)N2CCCCC2C)C(=O)O)cc1 (mixture of isomers) [Cpd 28] | 1800 | 29
32 | CC#CCN(Cc1ccco1)C(=O)N[C@@H](Cc1ccc(-c2c(OC)cnn(C)c2=O)cc1)C(=O)O [Cpd 31] | > 5000 | 414
33 | COc1cnn(C)c(=O)c1-c1ccc(C[C@H](NC(=O)N(C)C)C(=O)O)cc1 [Cpd 19] |  | 1550
34 | COc1cnn(C)c(=O)c1-c1ccc(C[C@H](NC(=O)N(C)C2CCCCC2)C(=O)O)cc1 [Cpd 11] | > 5000 | 53
35 | COc1cnn(C)c(=O)c1-c1ccc(C[C@H](NC(=O)N(C)c2ccccc2OC(F)(F)F)C(=O)O)cc1 [Cpd 51] | > 5000 | 52
